Test systems include SNB-78; HOP-18; XF498; M19-MEL; DLD-1; DMS-114; KM-20L2; DMS-273; RXF 631.
What all share (assay): growth of human tumour cells (NCI), 48 h

Experimental findings from ChEMBL document CHEMBL1201862, “PubChem BioAssay data set” (2004) are described below.

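Interpolation was linear, between the two tested concentrations surrounding the appropriate level; five concentrations were tested over 48 hours in 96-well plates. At the GI50, growth is halved.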 The source made the active and inactive calls. No stated cut-off is given here; in the data, active = GI50 up to about 1.1 µM and inactive = higher.

For `CCOC(=O)NC(=O)c1cn(CCN2CCNCC2)c(=O)[nH]c1=O`, the GI50 with SNB-78, in the assay with HOP-18, with XF498, in the assay on M19-MEL, with DLD-1 and with DMS-114 was > 100 µM (inactive) each time.

Regarding `CCOC(=O)[C@H]1Nc2ccc(Cl)cc2[C@H]2CCC[C@@H]12`, the GI50 in the assay with SNB-78 is > 100 µM (inactive); in the assay on HOP-18, 53.2 µM (inactive); in the assay on XF498 it was > 100 µM (inactive); in the assay on M19-MEL, > 100 µM (inactive); with DLD-1, > 100 µM (inactive); with DMS-114, 95.3 µM (inactive). The GI50 with KM-20L2 and in the assay on DMS-273 was > 100 µM (inactive) in each case.

For the molecule `CCOC(=O)C1C(=O)C(=O)N2CCc3c([nH]c4ccccc34)C12` (stereo not drawn), the GI50 with M19-MEL, with DLD-1, in the assay with DMS-114 and in the assay with KM-20L2 was > 100 µM (inactive) throughout.

Take `O=C1c2ccsc2C(=O)c2sc(CO)cc21`: the GI50 is 0.322 µM (active) in the assay on SNB-78; 0.0349 µM (active) with HOP-18; 0.352 µM (active) in the assay with XF498; 0.176 µM (active) with DLD-1; 0.182 µM (active) with KM-20L2; 0.0327 µM (active) in the assay on DMS-273.

For `O=S1(=O)CS(=O)(=O)OCCCCCO1`, the GI50 in the assay with SNB-78, in the assay on HOP-18, in the assay on RXF 631, in the assay with M19-MEL, in the assay on DLD-1 and in the assay on DMS-114 was > 100 µM (inactive) in each case. In addition, the GI50 in the assay on KM-20L2 and in the assay with DMS-273 was > 100 µM (inactive) each time.

Consider `Cc1cn(C2CC(CCCO)C(CO)O2)c(=O)[nH]c1=O` (stereo not drawn), for which the GI50 in the assay with XF498, in the assay on M19-MEL, in the assay on DLD-1, in the assay with DMS-114, with KM-20L2 and in the assay on DMS-273 was > 100 µM (inactive) throughout.

On to `CN1C(=O)c2cccc3c([N+](=O)[O-])ccc(c23)C1=O`, for which the GI50 in the assay with SNB-78 was 14 µM (inactive); with HOP-18 it was 17.1 µM (inactive); in the assay on RXF 631, 2.58 µM (inactive); in the assay on M19-MEL, 10.4 µM (inactive); in the assay on DLD-1 it was 2.82 µM (inactive); with DMS-114 it was 4.1 µM (inactive). The GI50 in the assay on KM-20L2 is 5.7 µM (inactive); in the assay on DMS-273 it was 4.23 µM (inactive).

In the case of `C[C@H]1[C@H](C)CC[C@]2(C(=O)O)CCC3(COC(=O)/C=C/c4ccc(O)cc4)C(=CCC4[C@@]5(C)CC[C@H](O)C(C)(C)C5CC[C@]43C)[C@H]12` (stereo partly drawn), the GI50 in the assay with SNB-78 was 43.8 µM (inactive); in the assay with HOP-18, 18.3 µM (inactive); in the assay on RXF 631, 7.55 µM (inactive); with M19-MEL it was 22.3 µM (inactive); in the assay on DLD-1, 3.39 µM (inactive); in the assay with DMS-114, 3.72 µM (inactive). The GI50 with KM-20L2 is 4.83 µM (inactive); in the assay on DMS-273 it was 4.76 µM (inactive).

For `Cc1ccc(/C=C(\C#N)c2ccccc2)cc1`, the GI50 with SNB-78, with HOP-18, in the assay with M19-MEL, in the assay on DLD-1, in the assay on DMS-114 and with KM-20L2 was > 100 µM (inactive) each time. In the assay on DMS-273, the GI50 was > 100 µM (inactive).

On to `CC(C)C(CCOS(=O)(=O)O)CCC(C)[C@H]1[C@@H](O)C(O)C2[C@]3(O)C[C@@H](O)C4(O)C[C@@H](O)CC[C@]4(C)C3CC[C@@]21C` (stereo partly drawn), for which the GI50 in the assay on SNB-78, in the assay on HOP-18, in the assay with XF498, in the assay with M19-MEL, in the assay on DLD-1 and in the assay with DMS-114 was > 100 µM (inactive) each time. For the same molecule, the GI50 with KM-20L2 and in the assay on DMS-273 was > 100 µM (inactive) in each case.

For the molecule `C[N+]1(C)C/C(=C\c2ccc(O)cc2)C(=O)/C(=C/c2ccc(O)cc2)C1`, the GI50 was > 100 µM (inactive) in the assay with SNB-78; > 100 µM (inactive) in the assay with HOP-18; > 100 µM (inactive) with M19-MEL; 49.7 µM (inactive) in the assay on DLD-1; 21.4 µM (inactive) in the assay with DMS-114; 61.4 µM (inactive) in the assay with KM-20L2. In the assay on DMS-273, the GI50 is 53 µM (inactive).

Turning to `Cc1ccc(S(=O)(=O)ON/N=C2/C3OC3[C@@H]3CCCC[C@H]23)cc1` (stereo partly drawn), the GI50 in the assay on HOP-18, in the assay with XF498, with M19-MEL, in the assay on DLD-1, in the assay with KM-20L2 and with DMS-273 was > 100 µM (inactive) each time.

On to `Nc1ncnc2c1ncn2C1OC(CSC(F)F)C(O)C1O` (stereo not drawn), for which the GI50 with SNB-78, in the assay with HOP-18, with RXF 631, in the assay on DLD-1, in the assay on DMS-114 and in the assay on KM-20L2 was > 100 µM (inactive) in each case. Moreover, the GI50 in the assay with DMS-273 is > 100 µM (inactive).

In the case of `COc1ccc(CNc2cnc3cc(N)ccc3n2)cc1OC`, the GI50 in the assay with M19-MEL, with DLD-1, with DMS-114 and with DMS-273 was > 100 µM (inactive) throughout.

Consider `C#CCSc1nc(N)c2ncn(C3OC(COP(=O)(O)O)C(O)C3O)c2n1` (stereo not drawn), for which the GI50 in the assay with SNB-78, in the assay with HOP-18, in the assay with XF498, with M19-MEL, in the assay on DLD-1 and in the assay with KM-20L2 was > 239 µM (inactive) each time. For the same molecule, in the assay on DMS-273, the GI50 was > 239 µM (inactive).

Consider `c1ccc2nc(-c3ccc4c(c3)OCO4)ccc2c1`, for which the GI50 is 77.6 µM (inactive) in the assay on SNB-78, 23.4 µM (inactive) in the assay on DMS-114, 39.6 µM (inactive) in the assay with KM-20L2 and 26.2 µM (inactive) in the assay on DMS-273.

Turning to `Cc1ccc(NC(=O)CCc2nnc(N)o2)cc1`, the GI50 in the assay on SNB-78 was > 100 µM (inactive); in the assay with RXF 631, > 31.6 µM (inactive); with XF498, > 100 µM (inactive); in the assay on M19-MEL, > 100 µM (inactive); in the assay on DLD-1, > 100 µM (inactive); in the assay with DMS-114, > 100 µM (inactive). In addition, the GI50 in the assay with KM-20L2 and with DMS-273 was > 100 µM (inactive) in each case.

Turning to `NC(CCC(=O)NC(CSC(=O)N(O)c1ccccc1)C(=O)NCC(=O)O)C(=O)O` (stereo not drawn), the GI50 in the assay on SNB-78, with M19-MEL, in the assay with DLD-1, with DMS-114, with KM-20L2 and in the assay with DMS-273 was > 1000 µM (inactive) throughout.

Turning to `O=C(O)/C=C/n1c2ccccc2c(=O)c2ccccc21`, the GI50 in the assay on SNB-78, in the assay on RXF 631, in the assay with XF498, with M19-MEL, in the assay with DLD-1 and with DMS-114 was > 100 µM (inactive) each time. Moreover, the GI50 in the assay with KM-20L2 and in the assay with DMS-273 was > 100 µM (inactive) each time.

As to `OC1CC(O)O[C@H](c2ccccc2)C1` (stereo partly drawn), the GI50 in the assay on SNB-78, with HOP-18, with M19-MEL, in the assay with DLD-1, in the assay on KM-20L2 and in the assay on DMS-273 was > 100 µM (inactive) throughout.

Turning to `CN(C)CC/C(=N\Nc1c(F)c(F)c(F)c(F)c1F)c1ccccc1`, the GI50 was 41.1 µM (inactive) in the assay with SNB-78; 23.6 µM (inactive) with HOP-18; 70.1 µM (inactive) in the assay on M19-MEL; 8.63 µM (inactive) in the assay on DLD-1; 25.5 µM (inactive) in the assay on DMS-114; 35.6 µM (inactive) in the assay on KM-20L2. The GI50 with DMS-273 is 29.2 µM (inactive).

For `Cc1c2cc[n+](C)cc2c(C)c2c1[nH]c1ccc(Oc3ccccc3)cc12`, the GI50 in the assay on DLD-1 is 0.906 µM (active); with KM-20L2, 1.14 µM (inactive); in the assay on DMS-273, 0.596 µM (active).

`CC(=O)OC1C[C@H]2C(OC(=O)c3ccccc3)C3C4(OC(C)=O)COC4C[C@H](OC(C)=O)[C@@]3(C)C(OC(C)=O)[C@H](OC(C)=O)C(=C1C)C2(C)C` (stereo partly drawn): the GI50 was 37.9 µM (inactive) in the assay on SNB-78; 20.1 µM (inactive) in the assay on HOP-18; 19.8 µM (inactive) in the assay with XF498; 57.9 µM (inactive) in the assay on M19-MEL; 32.7 µM (inactive) in the assay on DLD-1; 22.2 µM (inactive) with DMS-114. Besides, the GI50 was 59 µM (inactive) in the assay with KM-20L2 and 24.9 µM (inactive) in the assay with DMS-273.

As to `Cc1cc(C)nc(NS(=O)(=O)c2ccc(Nc3c4ccccc4nc4c(C(=O)N5CCN(CCO)CC5)cccc34)cc2)n1`, the GI50 in the assay on SNB-78, in the assay on HOP-18, with XF498, with M19-MEL, in the assay with DLD-1 and in the assay with DMS-114 was > 100 µM (inactive) in each case. Further, the GI50 with KM-20L2 and in the assay with DMS-273 was > 100 µM (inactive) in each case.

On to `CCOC(=O)C1=C(O)C(=O)c2cc(OC)ccc2C1=O`, for which the GI50 in the assay on SNB-78 is > 100 µM (inactive); in the assay with HOP-18, 4.51 µM (inactive); in the assay with M19-MEL, 20.7 µM (inactive); with DLD-1, > 100 µM (inactive); in the assay with DMS-114, > 100 µM (inactive); with KM-20L2, > 100 µM (inactive). Besides, the GI50 in the assay on DMS-273 was > 100 µM (inactive).

For the molecule `COc1cc2c3c(c1OC)C(=O)C=C3N(S(=O)(=O)c1ccc(C)cc1)CC2`, the GI50 was > 100 µM (inactive) in the assay with SNB-78; > 100 µM (inactive) in the assay on HOP-18; 72.9 µM (inactive) in the assay on XF498; > 100 µM (inactive) in the assay with M19-MEL; > 100 µM (inactive) in the assay on DLD-1; > 100 µM (inactive) with DMS-114. Besides, the GI50 with KM-20L2 and in the assay with DMS-273 was > 100 µM (inactive) throughout.

As for `CC(=O)Nc1ccc(C(=O)NN2C(=O)C(Cl)C2c2ccc([N+](=O)[O-])cc2)cc1` (stereo not drawn), the GI50 in the assay on SNB-78, with XF498, in the assay on M19-MEL, in the assay with KM-20L2 and in the assay on DMS-273 was > 100 µM (inactive) throughout.
